Source: paper PMC4186413, “Identification of metabolic pathways and enzyme systems involved in the in vitro human hepatic metabolism of dronedarone, a potent new oral antiarrhythmic drug” (Pharmacology Research & Perspectives, 2014)

What was measured:
Total CYPs = assay: Contribution of total CYPs to hepatocyte clearance (1-aminobenzotriazole inhibitory effect); type: in vitro ADME, human; details: for Effect of ABT on metabolism in hepatocytes (words): 1 mmol/L ABT, 5 μmol/L drug; for fm Total CYPs, Mean ± SD: mean of hepatocyte preparations
Experimental: Experiments were performed in 48-well plastic plates coated with rat tail Collagen type I. Plates were seeded with 0.16 × 10^5 hepatocytes per well in a final volume of 0.2 mL and incubated at 37°C under a 95% humidified air and 5% CO2 atmosphere. After 3 h during which cells were allowed to attach, the medium was renewed with 0.1 mL serum-free medium. Then, the investigated drug or metabolic probe(s) were added directly to the incubation medium in the absence or the presence of inhibitors such as either ketoconazole as a specific and potent CYP3A inhibitor (3 μmol/L final concentration), clorgyline (0.25 μmol/L final concentration) as a potent MAO-A inhibitor or ABT as a potent but nonselective CYP isoforms inhibitor (1 mmol/L final concentration) (Fabre et al. [1988]; Bourrié et al. [1996]; Klieber et al. [2008]). Regardless of the final concentration investigated, the final solvent (DMSO) concentration never exceeded 0.2% (v/v).
To determine the metabolism of the different compounds (metabolic probes, dronedarone, N-debutyl-dronedarone, propanoic acid-dronedarone, phenol-dronedarone, and C-dealkyl-dronedarone), kinetic studies were performed over 0–24 h. For each time point, 0.1 mL of acetonitrile was added to the specific well for protein precipitation, and both extracellular medium and the cell fraction were scraped together. Cell extracts were transferred to a glass tube and stored at −20°C until analysis. Before analysis, cell homogenates were sonicated for a few seconds, homogenized and centrifuged at 6000 g for 10 min. Supernatant fluids were then analyzed for the different drugs and their specific metabolites.
The fraction metabolized (fm) by MAO, CYP3A or total CYPs was determined using the following equation: [drawing 3] where: kei is the elimination rate constant (expressed in h^−1) in the presence of the inhibitor.
The kinetics of drug disappearance were investigated using four different cryopreserved human hepatocyte preparations in primary cultures following incubation with either dronedarone or its metabolites at a concentration of 5 μmol/L. Incubations were performed either in the absence, that is control conditions, or in the presence of enzyme system inhibitors such as 3 μmol/L ketoconazole (specific and potent inhibitor of CYP3A4/5), 1 mmol/L ABT (a potent and […] inhibitor of total CYPs), or 0.25 μmol/L clorgyline (a potent MAO-A inhibitor) (Dorris [1982]). Kinetic studies were performed over 24 h.

[1] = tested on: CYP1A1, -1A2, -2A6, -2B6, -C8, -2C9, -2C18, -2C19, -2D6, -2E1, -3A4, and -3A5; assay: Oxidation by the panel of recombinant human CYP isoforms; type: in vitro ADME; details: 100 pmol/mL, 5 μmol/L, 30 min, NADPH; for Oxidation by the other CYP isoforms of the panel: isoforms other than those named for the drug
Description: Recombinant human CYPs (Supersomes™; BD Gentes, Woburn, MA: CYP1A1, CYP1A2, CYP2A6, CYP2B6, CYP2C8, CYP2C9, CYP2C18, CYP2C19, CYP2D6, CYP2E1, CYP3A4 and CYP3A5), FMOs (Supersomes™: FMO1, FMO3, FMO5), MAOs (Supersomes™: MAO-A and MAO-B), and UGTs (Supersomes™: UGT1A1, UGT1A3, UGT1A4, UGT1A6, UGT1A7, UGT1A8, UGT1A9, UGT1A10, UGT2B4, UGT2B7, UGT2B15, and UGT2B17) expressed in baculovirus-infected insect cells and control microsomes from insect cells infected with wild-type baculovirus were all obtained from BD Gentest (Woburn, MA).
For oxidative pathways, the assay mixture was composed of human liver microsomes (1 mg·m·L^−1) or microsomes of baculovirus-infected cells expressing human enzymes (100 pmol·mL^−1 for CYPs and 1 mg·mL^−1 for FMOs and MAOs), nicotinamide adenine dinucleotide phosphate reduced form (NADPH) (1 mmol/L), 100 mmol/L potassium phosphate (pH 7.4), and 5 μmol/L of the investigated compound dissolved in DMSO in a final volume of 500 μL.
The final concentration of DMSO in the reaction mixture was less than 1% (v/v). Initial rate conditions with respect to time and protein concentration for both the disappearance of unchanged drug and the formation of respective metabolites were established in preliminary studies. The enzyme reaction was initiated by addition of NADPH (10 mmol/L aqueous solution) to achieve a final concentration of 1 mmol/L for oxidative CYP- and FMO-dependent reactions or by the drug for MAO-dependent reactions, incubated at 37°C and stopped after 0–30 min by addition of one volume of ice-cold acetonitrile.
In human liver microsomes and recombinant isoforms, the percentage of metabolism was determined on the basis of unchanged drug disappearance, using the following equation [drawing 1] where UDt = 30 min represents the unchanged drug peak area after a 30-min incubation period and UDt = 0, the unchanged drug peak area at t = 0.
To identify the specific isoforms that are capable of oxidizing dronedarone and its metabolites, assays were performed using c-DNA-expressed isoforms belonging to CYP- (CYP1A1, -1A2, -2A6, -2B6, -C8, -2C9, -2C18, -2C19, -2D6, -2E1, -3A4, and -3A5), FMO- (FMO-1, -3, and -5) and MAO- (MAO-A and MAO-B) families.
Figure 5 Contribution of individual CYPs, FMOs and MAOs to the oxidation of dronedarone and its metabolites. Individual CYPs (100 pmol/mL), FMOs (1 mg/mL) and MAOs (1 mg/mL) were incubated with either dronedarone (A) or its metabolites, N-debutyl-dronedarone (B), propanoic acid-dronedarone (C), and phenol-dronedarone (D), at a concentration of 5 μmol/L, for 30 min at 37°C in the presence of NADPH, except for MAOs where incubations were performed in the absence of cofactor. Unchanged drugs were quantified by LC/MS-MS relative to the synthetic references as described in Materials and Methods. Data are expressed as the percentage of oxidation.

[2] = BD-91, 1 mmol/L 1-aminobenzotriazole
[3] = BD-296, 1 mmol/L 1-aminobenzotriazole
[4] = HU-1358, 1 mmol/L 1-aminobenzotriazole
[5] = IVT-IBG, 1 mmol/L 1-aminobenzotriazole

Compound	Effect of ABT on metabolism in hepatocytes (words) (Total CYPs)	Effect of ABT on metabolism in hepatocytes (words) (Total CYPs; listed as phenol-dronedarone)	fm Total CYPs (Total CYPs; [2]) [%]	fm Total CYPs (Total CYPs; [3]) [%]	fm Total CYPs (Total CYPs; [4]) [%]	fm Total CYPs (Total CYPs; [5]) [%]	fm Total CYPs, Mean ± SD (Total CYPs; 1 mmol/L 1-aminobenzotriazole) [%]	Metabolism by any of the different CYPs [1]	Oxidation by the other CYP isoforms of the panel [1]
CCCCc1oc2ccc(NS(C)(=O)=O)cc2c1C(=O)c1ccc(OCCCN(CCCC)CCCC)cc1.Cl [Dronedarone, N-(2-Butyl-3-(4-(3-(dibutylamino)propoxy)benzoyl)-5-benzofuranyl)methanesulfonamide, hydrochloride]	predominant inhibitory effect	–	98	99	98	95	98 ± 2	–	less than 15%
CCCCN(CCCC)CCCOc1ccc(C(=O)O)cc1 [C-dealkyl-dronedarone]	no effect	–	–	–	–	–	–	not metabolized	–
CCCCNCCCOc1ccc(C(=O)c2c(CCCC)oc3ccc(NS(C)(=O)=O)cc23)cc1 [N-debutyl-dronedarone]	moderately decreased its metabolic rate	–	67	48	51	54	55 ± 7	–	Neither other CYPs nor FMOs metabolized N-debutyl-dronedarone to any significant extent

The next lines start with results.

Effect of ABT on metabolism in hepatocytes (words) (Total CYPs)	Effect of ABT on metabolism in hepatocytes (words) (Total CYPs; listed as phenol-dronedarone)	fm Total CYPs (Total CYPs; [2]) [%]	fm Total CYPs (Total CYPs; [3]) [%]	fm Total CYPs (Total CYPs; [4]) [%]	fm Total CYPs (Total CYPs; [5]) [%]	fm Total CYPs, Mean ± SD (Total CYPs; 1 mmol/L 1-aminobenzotriazole) [%]	Metabolism by any of the different CYPs [1]	Compound	Oxidation by the other CYP isoforms of the panel [1]
did not contribute	no significant effect	–	–	–	–	–	–	CCCCc1oc2ccc(NS(C)(=O)=O)cc2c1C(=O)c1ccc(O)cc1 [Phenol-dronedarone]	contributed to a very small extent
potently inhibited	–	87	92	91	89	90 ± 3	–	CCCCc1oc2ccc(NS(C)(=O)=O)cc2c1C(=O)c1ccc(OCCC(=O)O)cc1 [Propanoic acid-dronedarone]	Neither other CYPs, nor FMOs and MAOs metabolized propanoic acid-dronedarone to any significant extent
